pIC50: −log10 of the molar value. Values joined by “and” are separate entries in the source; they are usually repeats but may differ in a detail not shown here. Equal values may be shown once.
Key:
[1] = Pharmacokinetic study, LC-MS/MS of plasma; assay type: in vivo, ICR mice
Description: For the pharmacokinetic study, 0 or 100 mg/kg of GTN057 (1% Tween® 80 + 10% DMSO in saline) was injected (i.p.) into male 5‐week‐old ICR mice. Peripheral blood samples were taken using heparinized hematocrit tubes from the tail vein of each mouse at 0, 15, and 30 min and 1, 2, 4, and 24 h. The blood samples were applied to centrifugation (1100 × g, 15 min at 4°C) and we then collected the supernatant plasma. […] (Wako) and MeOH (Kanto, Tokyo) for LC–MS/MS (liquid chromatography–tandem mass spectrometry) measurements were mixed in a 1:1 ratio, and verapamil hydrochloride (an internal standard substance) was dissolved to the final concentration of 120 ng/mL to prepare a deproteinizing agent. We diluted the blood samples four times with this deproteinizing agent. After 15 min on ice, each deproteinized plasma sample was centrifuged (9100 × g, 10 min, 4°C). The supernatants were collected and used for the LC–MS/MS analyses.
All compounds including GTN057 were analyzed with a mass spectrometer (AB SCIEX) coupled to an HPLC (high‐performance liquid chromatography) system (Shimadzu). The peptides were separated with the use of an Atlantis® dC18, 3‐μm, 100 Å column (Waters). The solvent composition was 15% for solution A (100 mM CH3COONH4) and 85% for solution B (CH3OH). The HPLC measurement settings were as follows. Constant flow rate: 0.2 mL/min, column temperature: 40°C. The MS settings were: spray voltage, 5500 V; turbo heater temperature, 300°C.

ERK1/2 = experiment: Western blot, dose-dependent inhibition of ERK1/2 phosphorylation in KMS34 cells; assay type: cell-based; settings: Homo sapiens, KMS-34, Western blot densitometry, read-out: 50% inhibition of the phosphorylation of ERK1/2
Description: (§1) MM cells (4 × 10^5 cells/mL) were incubated with 0–20 μM GTN057 for 12 h. The cells were then co‐cultured with 0–50 ng/mL of hepatocyte growth factor (HGF) (PeproTech, London) or 0–20 ng/mL of fibroblast growth factor (FGF)‐2 (PeproTech) with 1 unit/mL of heparin in RPMI containing 4% dialyzed FCS (Gibco) for the KMS11 and KMS34 cells and 10% dialyzed FCS for the KMS21 cells for 15 min at RT (room temperature). A549 cells were co‐cultured with 0–50 ng/mL of epidermal growth factor (EGF) (PeproTech) in Eagle's MEM containing 4% dialyzed FCS for 15 min at RT. […]
(§2) The protein concentrations were measured using a BCA Protein Assay Kit (Thermo Fisher Scientific). […]
(§3) Antibodies against phospho‐STAT3 (Tyr705), phospho‐Akt (Ser473), p44/42 MAPK (Erk 1/2), phosphor‐p44/42 MAPK (Thr202/Tyr 204), and phospho‐c‐Met (Tyr1234/1235) (all from Cell Signaling Technology, Danvers, MA) or STAT3, Akt, c‐Met, and β‐actin (all from Santa Cruz Biotechnology, Santa Cruz, CA) or phospho‐c‐Met (Tyr1230/1234/1235) (Biosource, Camarillo, CA for KMS34 cells in Figure 3A) were each used at 1:1000 dilution. […] The Western blotting signals were detected by enhanced ECL chemiluminescence (Amersham). The signal intensity of each band was quantified densitometrically with ImageJ software (ver. 1.48, U.S. National Institutes of Health).

HGF/c-MET signaling = experiment: Western blot, HGF-stimulated signaling in KMS11, KMS21 and KMS34 cells; assay type: cell-based, human; settings: 20 μM GTN057
Description: as §1, §2, §3

[2] = male, mouse, ip, single i.p. injection 100 mg/kg, ICR mice, plasma

COc1c(OC(C)=O)c2c(c(O)c1C(C)C)C(=O)CC1C(C)(C)CCC[C@]1(O)C2 (some centres unmarked) [GTN057]
Cmax [1, 2]: 790 ng/mL and 1.95 µM | Tmax [1, 2]: 30 min | Degradation in plasma ([1]; plasma, LC-MS/MS, preliminary data): immediately dehydrated (m/z 387) or deacetylated (m/z 363) in plasma | plasma disappearance half-time ([1]; single i.p. injection 100 mg/kg, ICR mice): 110 min | Presence in blood at 24 h post-injection ([1]; single i.p. injection 100 mg/kg, ICR mice, 24 h): almost completely disappeared | pIC50 (ERK1/2): 4.67 | Phosphorylation of ERK1/2, STAT3 and Akt1 (HGF/c-MET signaling; KMS11, KMS21, KMS34 cells, 50 ng/mL HGF): diminished | Phosphorylation at y1234 y1235 of c-MET (HGF/c-MET signaling; co-culture with HGF): abolished
